Bounds are passed on as bounds.

What is called IC50 is the concentration that gives 50% inhibition.

The test deals with CSF-1R (FMS) (Homo sapiens (Human), UniProt P07333). Kind of test: SelectScreen Z'-LYTE kinase assay, Assay 336 for CSF-1R (FMS). Particulars: Z'-LYTE activity assay, 500 μM ATP (Km app); read-out: CSF-1R Enzyme IC50. The class given is biochemical.
Chain of CSF-1R (FMS) (P07333 20-972): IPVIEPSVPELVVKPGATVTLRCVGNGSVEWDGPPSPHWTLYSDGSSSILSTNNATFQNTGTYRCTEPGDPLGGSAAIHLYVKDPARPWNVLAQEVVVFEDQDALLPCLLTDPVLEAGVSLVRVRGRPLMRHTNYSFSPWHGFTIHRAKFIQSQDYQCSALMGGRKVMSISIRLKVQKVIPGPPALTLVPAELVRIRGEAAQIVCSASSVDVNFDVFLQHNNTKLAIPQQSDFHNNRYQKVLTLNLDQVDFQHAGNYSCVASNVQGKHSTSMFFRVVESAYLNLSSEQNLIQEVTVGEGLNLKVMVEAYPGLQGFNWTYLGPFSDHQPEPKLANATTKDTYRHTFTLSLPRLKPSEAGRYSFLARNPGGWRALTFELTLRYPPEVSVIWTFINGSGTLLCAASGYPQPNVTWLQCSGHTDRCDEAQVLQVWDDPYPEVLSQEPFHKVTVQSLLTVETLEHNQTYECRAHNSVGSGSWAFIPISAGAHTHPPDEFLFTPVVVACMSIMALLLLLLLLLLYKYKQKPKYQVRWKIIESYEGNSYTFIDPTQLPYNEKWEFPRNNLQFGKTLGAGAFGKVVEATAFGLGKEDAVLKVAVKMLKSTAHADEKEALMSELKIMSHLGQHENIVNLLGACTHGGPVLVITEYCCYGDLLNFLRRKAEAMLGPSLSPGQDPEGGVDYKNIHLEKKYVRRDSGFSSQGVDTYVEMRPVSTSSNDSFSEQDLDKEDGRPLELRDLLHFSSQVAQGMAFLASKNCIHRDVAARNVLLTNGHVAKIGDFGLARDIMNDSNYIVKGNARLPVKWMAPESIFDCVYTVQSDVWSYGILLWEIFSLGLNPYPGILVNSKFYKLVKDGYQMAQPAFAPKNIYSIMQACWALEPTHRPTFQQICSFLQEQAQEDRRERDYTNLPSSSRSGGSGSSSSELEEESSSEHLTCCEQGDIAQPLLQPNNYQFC
Take `Cc1cc(OCCN(C)C)c2oc3cc(Oc4ccc(OCc5ccc(C(F)(F)F)nc5)nc4)ccc3c(=O)c2c1` [Example 13, 4-(2-(Dimethylamino)ethoxy)-2-methyl-6-((6-((6-(trifluoromethyl)pyridin-3-yl)meth-oxy)pyridin-3-yl)oxy)-9H-xanthen-9-one]: the IC50 is below 100 nM.
On to `COc1ccc(CCc2ccc(Oc3ccc4c(=O)c5cccc(OCCN(C)C)c5oc4c3)cn2)cc1` [Example 3, 5-[2-(Dimethylamino)ethoxy]-3-({6-[2-(4-methoxyphenyl)ethyl]-3-pyridinyl}oxy)-9H-xanthen-9-one], for which the IC50 was in the range of 100 to 1000 nM.
As to `Cc1cc(OCCN(C)C)c2sc3cc(Oc4ccc(CCC(=O)NC5CCCC5)nc4)ccc3c(=O)c2c1` [Example 51, N-Cyclopentyl-3-(5-((5-(2-(dimethylamino)ethoxy)-7-methyl-9-oxo-9H-thioxanthen-3-yl)oxy)pyridin-2-yl)propanamide], the 50% inhibitory concentration (IC50) is below 100 nM.
Next, `Cc1cc(OC[C@H]2CCCN2C)c2oc3cc(Oc4ccc(CCC(=O)NC5CCCC5)nc4)ccc3c(=O)c2c1` [Example 72, (R)—N-Cyclopentyl-3-(5-((7-methyl-5-((1-methylpyrrolidin-2-yl)methoxy)-9-oxo-9H-xanthen-3-yl)oxy)pyridin-2-yl)propanamide]: below 100 nM; `Cc1cc(OC[C@@H]2CCCN2C)c2oc3cc(Oc4ccc(CCC(=O)NC5CCCC5)nc4)ccc3c(=O)c2c1` [Example 73, (S)—N-Cyclopentyl-3-(5-((7-methyl-5-((1-methylpyrrolidin-2-yl)methoxy)-9-oxo-9H-xanthen-3-yl)oxy)pyridin-2-yl)propanamide]: below 100 nM; `COc1ccc(CNc2ccc(Oc3ccc4c(=O)c5cc(C)cc(OCCN(C)C)c5oc4c3)cn2)cn1` [Example 16, 4-(2-(Dimethylamino)ethoxy)-6-((6-(((6-methoxypyridin-3-yl)methyl)amino)pyridin-3-yl)oxy)-2-methyl-9H-xanthen-9-one]: below 100 nM.
Next, `Cc1cc(OCC2CCN(C)CC2)c2oc3cc(Oc4ccccc4)ccc3c(=O)c2c1` [Example 35, 2-Methyl-4-((1-methylpiperidin-4-yl)methoxy)-6-phenoxy-9H-xanthen-9-one]: 100 to 1000 nM; `CN(C)CCOc1ccc2oc3cc(Oc4ccc(CCC(=O)NC5CCCC5)nc4)ccc3c(=O)c2c1` [Example 44, N-Cyclopentyl-3-(5-((7-(2-(dimethylamino)ethoxy)-9-oxo-9H-xanthen-3-yl)oxy)-pyridin-2-yl)propanamide]: below 100 nM.
As for `Cc1ccc2c(c1)c(=O)c1ccc(Sc3ccccc3)cc1n2CCCN(C)C` [Example 52, 10-(3-(Dimethylamino)propyl)-2-methyl-6-(phenylthio)acridin-9(10H)-one], the IC50 fell in the range of 1000 to 10000 nM.
The same measure for `Cc1cc(OCCN2CCCCC2)c2oc3cc(Oc4ccc(CCC(=O)NC5CCCC5)nc4)ccc3c(=O)c2c1` [Example 38, N-Cyclopentyl-3-(5-((7-methyl-9-oxo-5-(2-(piperidin-1-yl)ethoxy)-9H-xanthen-3-yl)oxy)pyridin-2-yl)propanamide]: below 100 nM.
As for `COc1ccc(COc2ccc(Oc3ccc4c(=O)c5cc(C)cc(OCCN(C)C)c5oc4c3)cn2)cc1` [Example 10, 4-(2-(Dimethylamino)ethoxy)-6-((6-((4-methoxybenzyl)oxy)pyridin-3-yl)oxy)-2-methyl-9H-xanthen-9-one], the IC50 was below 100 nM.
Next, `CCN(CC)CCOc1cc(C)cc2c(=O)c3ccc(Oc4ccc(CCC(=O)NC5CCCC5)nc4)cc3oc12` [Example 55, N-Cyclopentyl-3-(5-((5-(2-(diethylamino)ethoxy)-7-methyl-9-oxo-9H-xanthen-3-yl)oxy)pyridin-2-yl)propanamide]: below 100 nM; `Cc1cc(OCCN(C)C)c2oc3cc(Oc4ccc(CCC(=O)N5CCOCC5)nc4)ccc3c(=O)c2c1` [Example 24, 4-(2-(Dimethylamino)ethoxy)-2-methyl-6-((6-(3-morpholino-3-oxopropyl)pyridin-3-yl)oxy)-9H-xanthen-9-one]: below 100 nM.
Take `COc1ccc(COc2ccc(Oc3ccc4c(=O)c5cc(C)cc(OCCN(C)C)c5oc4c3)cc2OC)cc1` [Example 7]: the IC50 is below 100 nM.
Turning to `Cc1cc(OCCCN2CCOCC2)c2oc3cc(Oc4ccc(CCC(=O)NC5CCCC5)nc4)ccc3c(=O)c2c1` [Example 69, N-Cyclopentyl-3-[5-({7-methyl-5-[3-(4-morpholinyl)propoxy]-9-oxo-9H-xanthen-3-yl}oxy)-2-pyridinyl]propanamide], the IC50 was below 100 nM.
The same measure for `Cc1cc(OCCN(C)C)c2oc3cc(Oc4ccc(CCC(=O)N5CCN(C)CC5)nc4)ccc3c(=O)c2c1` [Example 54, 4-(2-(Dimethylamino)ethoxy)-2-methyl-6-((6-(3-(4-methylpiperazin-1-yl)-3-oxopropyl)pyridin-3-yl)oxy)-9H-xanthen-9-one]: below 100 nM; for `CN(C)CCOc1cc(Cl)cc2c(=O)c3ccc(Oc4ccccc4)cc3oc12` [Example 39, 2-Chloro-4-[2-(dimethylamino)ethoxy]-6-phenoxy-9H-xanthen-9-one]: 1000 to 10000 nM.
In the case of `Cc1cc(OCCN(C)C)c2oc3cc(Oc4ccc(CCC(=O)Nc5cccnc5)nc4)ccc3c(=O)c2c1` [Example 21, 3-(5-((5-(2-(Dimethylamino)ethoxy)-7-methyl-9-oxo-9H-xanthen-3-yl)oxy)pyridin-2-yl)-N-(pyridin-3-yl)propanamide], the IC50 was below 100 nM.
Next, `CN(C)CCOc1ccc2c(=O)c3ccc(Oc4ccc(CCC(=O)NC5CCCC5)nc4)cc3oc2c1` [Example 47, N-Cyclopentyl-3-(5-((6-(2-(dimethylamino)ethoxy)-9-oxo-9H-xanthen-3-yl)oxy)pyridine-2-yl)propanamide]: below 100 nM.
On to `Cc1cc(OCCN(C)C)c2sc3cc(Oc4cccc(C(=O)Nc5ccccc5)c4)ccc3c(=O)c2c1` [Example 49, 3-((5-(2-(Dimethylamino)ethoxy)-7-methyl-9-oxo-9H-thioxanthen-3-yl)oxy)-N-phenylbenzamide], for which the IC50 is below 100 nM.
The same measure for `COc1ccc(CCc2ccc(Oc3ccc4c(=O)c5cc(C)cc(OCCN(C)C)c5oc4c3)cn2)cc1` [Example 18, 4-(2-(Dimethylamino)ethoxy)-6-((6-(4-methoxyphenethyl)pyridin-3-yl)oxy)-2-methyl-9H-xanthen-9-one]: below 100 nM; for `Cc1cc(OC2CCN(C)C2)c2oc3cc(Oc4ccc(CCC(=O)NC5CCCC5)nc4)ccc3c(=O)c2c1` (stereo not drawn) [Example 70, N-Cyclopentyl-3-(5-((7-methyl-5-((1-methylpyrrolidin-3-yl)oxy)-9-oxo-9H-xanthen-3-yl)oxy)pyridin-2-yl)propanamide]: below 100 nM.
As for `Cc1cc(OCCN(C(C)C)C(C)C)c2oc3cc(Oc4ccc(CCC(=O)NC5CCCC5)nc4)ccc3c(=O)c2c1` [Example 57, N-Cyclopentyl-3-[5-({5-[2-(diisopropylamino)ethoxy]-7-methyl-9-oxo-9H-xanthen-3-yl}oxy)-2-pyridinyl]propanamide], the 50% inhibitory concentration (IC50) was below 100 nM.
The same measure for `Cc1cc(OCC2CCCN(C)C2)c2oc3cc(Oc4ccc(CCC(=O)NC5CCCC5)nc4)ccc3c(=O)c2c1` (stereo not drawn) [Example 76, N-Cyclopentyl-3-(5-((7-methyl-5-((1-methylpiperidin-3-yl)methoxy)-9-oxo-9H-xanthen-3-yl)oxy)pyridin-2-yl)propanamide]: below 100 nM.
